According to paper PMC10747034 (Tropical Medicine and Infectious Disease, 2023):
Values joined by “and” are separate entries in the source; they are usually repeats but may differ in a detail not shown here. Equal entries are not always repeated. “Also recorded” adds a separate entry of the source.

Legend:
[1] = tested on: Toxoplasma gondii tachyzoites of RH strain; test: Plaque assay (7 days) in NHDF monolayers infected with T. gondii; assay type: cell-based; conditions: 7 days of treatment, two independent experiments
Description: After NHDF reached confluency, each well was replaced with fresh medium containing one compound at a concentration of 1 µM, and then infected with 1000 newly egressed tachyzoites from RH strain [29]. Screening at 1 μM is recommended by MMV. As a control, infected cells were incubated with complete medium and 0.01% DMSO [29]. The plates were then kept in an incubator at 37 °C in a humid atmosphere with 5% CO2 for seven days. After this time, cultures were fixed with 70% ethanol and stained with crystal violet to observe the plates.
For that, 12-well plates containing a monolayer of NHDF were infected with 600 tachyzoites of the RH strain of T. gondii and treated with different concentrations for seven days. IC50s of compounds were calculated using GraphPad Prism 8.0 software.
Data were analyzed using GraphPad Prim 8.0 software. IC50 and CC50 calculations were performed by fitting the values of proliferation/viability in percentage to a non-linear curve followed by dose–response inhibition analysis through log(inhibitor) vs. normalized response.

[2] = Cytotoxicity assay (MTS, 7 days); assay type: cell-based, Human; conditions: human, NHDF cells, MTS, concentrations up to 10 µM, two independent experiments, read-out: Cytotoxicity against NHDF (7 Days) CC50
Description: (§1) For that, 96-well tissue plates containing NHDF cells were treated with different concentrations of compounds up to 10 µM for seven days. Control cells were incubated with 0.5% DMSO. At the end of the treatment, cell viability was then analyzed through the colorimetric method of MTS (Promega, Madison, WI, USA). […] Data were analyzed using GraphPad Prim 8.0 software. IC50 and CC50 calculations were performed by fitting the values of proliferation/viability in percentage to a non-linear curve followed by dose–response inhibition analysis through log(inhibitor) vs. normalized response.

NHDF cells = test: Cytotoxicity assay (MTS, 7 days); assay type: cell-based, Human; conditions: for CC50: MTS, concentrations up to 10 µM, two independent experiments, read-out: Cytotoxicity against NHDF (7 Days) CC50
Description: as §1

[3] = tested on: Toxoplasma gondii tachyzoites of RH strain; test: Forty-eight-hour antiproliferative assay; assay type: cell-based; conditions: 48 h
Description: NDHF cell monolayers were plated in a 24-well tissue plate containing coverslips, and after confluency was reached, cells were infected with a ratio of 5:1 parasite/host cells with freshly egressed RH strain tachyzoites for two hours. Then, cells were washed twice with phosphate-buffered saline, pH 7.4 (PBS), to remove non-invaded parasites and incubated with a complete medium for two hours more. After this time, infected cells were treated for 48 h with different concentrations of selected compounds, based on the IC50 obtained through plaque assay. At the end of the experiment, the cells were washed with PBS, stained with Bouin for 10 min, washed with 70% alcohol, and stained with solutions 2 and 3 of the Fast Panoptic kit for 60 and 10 s, respectively. Two hundred infected cells were quantified per slide using the 100× objective of a Leica DM500 optical microscope, stratifying the number of infected and non-infected cells and the amount of tachyzoite in each infected cell. The proliferation index is the ratio of the product of the total amount of tachyzoites and the percentage of infected cells by the total number of cells.

[4] = tested on: T. gondii tachyzoites (apicoplast); test: Immunofluorescence assay of apicoplast loss (anti-CPN60); assay type: cell-based, Toxoplasma gondii; conditions: 1 µM, 24 h
Description: Anti-CPN60 (kindly provided by Dr. Boris […], University of Georgia, USA) was used to label the apicoplast luminal protein CPN60 at a dilution of 1:2000. DAPI (5 μg/mL; Sigma-Aldrich) was used to label the DNA. After labeling, the coverslips were mounted onto slides using Prolong gold (Life Technologies, Eugene, OR, USA), and samples were examined on an Invitrogen EVOS fluorescence microscope.

T. gondii tachyzoites = test: Ultrastructural analysis through transmission electron microscopy; assay type: cell-based, Toxoplasma gondii; conditions: 48 h
Description: T-25 cm^2 flasks for cell culture with confluent monolayers of NHDF were infected with freshly egressed tachyzoite in a ratio of 10:1 parasite per cell for 2 h of interaction. The flasks were washed and fresh RPMI was added for another two hours. After this, the compounds were added and infected cells were treated for 48 h. The sample fixation and processing for microscopy were performed as previously described.

[5] = tested on: Toxoplasma gondii tachyzoites of RH strain; test: Post-treatment recovery (washout) assay; assay type: cell-based; conditions: 3 days of treatment, 7 days recovery without drug; 0.001 to 1 µM tested
Description: NHDF monolayers in 12-well plates were infected with 5000 newly egressed tachyzoites from RH strain and then treated for 3 days with drug concentrations of 0.001 to 1 µM. After treatment, the medium with drugs was removed, and the cells were washed twice and incubated with a fresh medium without drugs for an additional 7 days to allow the remaining parasites (if still viable after treatment) to grow. The plates were then kept in an incubator at 37 °C in a humid atmosphere with 5% CO2 throughout the treatment.

Row | Compound | IC50 ([1]; Toxoplasma gondii, NHDF, 168 h) [nM] | CC50 at 7 days [2] [µM] | SI (Selectivity Index, CC50 NHDF cells/IC50 T. gondii) (NHDF cells) | IC50 [1] | CC50 (NHDF cells) [µM] | further results
1 | CCCCC(CC)CNC(=N)NC(=N)NCCCCCCNC(=N)NC(=N)NCC(CC)CCCC (stereo not drawn) [Alexidine] | 272 ± 38.4 | 1.63 | 6 |  |  | inhibition at 0.25 µM ([3]; Toxoplasma gondii, 0.25 µM, read-out: Inhibition of parasite proliferation): ~60%
2 | Cc1cc(C2CCCCC2)n(O)c(=O)c1 [Ciclopirox] | 497 ± 18.1 | 4 | 8 |  |  | 
3 | CCC[C@@H]1C[C@@H](C(=O)N[C@@H]([C@H]2O[C@H](SC)[C@H](O)[C@@H](O)[C@H]2O)[C@H](C)Cl)N(C)C1 [Clindamycin] |  |  |  |  |  | Frequency of vacuoles (4 or 8 parasites) with at least one parasite presenting apicoplast loss [4]: higher than 30%
4 | COc1cc(NS(=O)(=O)c2ccc(C)cc2)c2ncccc2c1 [DNDI1417411] |  |  |  | 485 ± 43.8 nM | 14.5 | Inhibition of parasite proliferation ([3]; 1 µM): more than 60%
5 | CC[C@H]1OC(=O)[C@H](C)[C@@H](O[C@H]2C[C@@](C)(OC)[C@@H](O)[C@H](C)O2)[C@H](C)[C@@H](O[C@@H]2O[C@H](C)C[C@H](N(C)C)[C@H]2O)[C@](C)(O)C[C@@H](C)C(=O)[C@H](C)[C@@H](O)[C@]1(C)O [Erythromycin] | ≤ 200 | 11.9 | 91 | 131 ± 15.8 nM |  | 
6 | CC1=C(/C=C/C(C)=C/C=C/C(C)=C/C(=O)Nc2ccc(O)cc2)C(C)(C)CCC1 [Fenretinide] | 918 ± 29.1 | 26.7 | 29 |  |  | 
7 | Oc1c(C(Nc2nc3ccccc3s2)c2ccc(OC(F)F)cc2)ccc2cccnc12 (stereo not drawn) [MMV019724] |  |  |  | ≤ 200 nM and 109 nM | 2.5 | Ultrastructural alterations on tachyzoites (TEM) (T. gondii tachyzoites; 0.25 µM): affected the parasite cell division process; also recorded: induced a lytic effect in the parasite; Inhibition of parasite proliferation ([3]; 0.25 µM): more than 80%; Inhibition of parasite proliferation ([3]; 1 µM): 99%
8 | Oc1cccc(C(Nc2nccs2)c2ccc3cccnc3c2O)c1 (stereo not drawn) [MMV642550] |  |  |  | 320 ± 17 nM | 6.73 | Ultrastructural alterations on tachyzoites (TEM) (T. gondii tachyzoites; 1 µM): affected the Golgi complex (GC) (Figure 4E) and induced extensive vacuolization inside the parasite body; Inhibition of T. gondii proliferation ([3]; 0.5 µM): around 75%
9 | O=S(=O)(Nc1cccc2cccnc12)c1ccccc1 [MMV1578890] |  |  |  | 1100 ± 0.1 nM | 10.3 | 
10 | CCc1nc(N)nc(N)c1C#CC(C)c1cc(OC)cc(-c2ccncc2)c1 (stereo not drawn) [MMV1580844] |  |  |  |  | 11.2 | Ultrastructural alterations on tachyzoites (TEM) (T. gondii tachyzoites; 3 nM): caused parasite lysis; also recorded: disrupted the parasite division process; Concentrations at which monolayer lysis and plaque areas were seen after washout [5]: 0.001 to 0.01 µM; Inhibition of tachyzoite proliferation ([3]; 7 nM): more than 90%; Inhibition of T. gondii proliferation ([3]; concentrations close to 2 nM): approximately 50%
11 | Fc1ccc(-c2nc(-c3c[nH]c4ccc(Br)cc34)[nH]c2-c2ccc(F)cc2)cc1 [MMV1593537] |  |  |  | 940 ± 38.6 nM | 5.66 | 
